Assay results: patent US20040121946A9, “Inducing cellular immune responses to her2/neu using peptide and nucleic acid compositions” (priority 2002, published 2004)

How the values were obtained:
[1] = molecular target: DRB1*1302 (DR6w19) (Homo sapiens, UniProt P01903+P01911, A100E/A169T/K41T/L162R/M171V/P40S/Q125H/Q178H/Q39Y/Q99D/R42S/S66N/T262R/V115G/W38E/Y61H); test: HLA class II peptide binding assay, purified HLA; details: for DR6w19 binding data: unit not given
[2] = molecular target: DRB1*1101 (DR5w11) (Homo sapiens, UniProt P01903+P01911, A100R/A169T/A87E/I96F/K41T/L162R/M171V/P40S/Q125H/Q178H/Q39Y/Q99D/R42S/S66Y/T262R/V115G/W38E); test: HLA class II peptide binding assay, purified HLA; details: unit not given
[3] = molecular target: DRB1*0701 (DR7) (Homo sapiens, UniProt P01903+P01911, A100R/A102G/A103Q/D57E/D86V/E43K/F76Y/K127E/L162R/M171V/P40G/Q125H/Q99D/R33Q/R42Y/R54Q/S133A/S66F/T210M/V115G/Y107V/Y59L/Y89S); test: HLA class II peptide binding assay, purified HLA; details: unit not given
[4] = molecular target: DRB1*0301 (DR3) (Homo sapiens, UniProt P01903+P01911, A100K/A102G/A103R/A169T/F55Y/I96L/K41T/L162R/M171V/P40S/Q125H/Q178H/Q39Y/R42S/S66N/T106N/T262R/W38E/Y61H); test: HLA class II peptide binding assay, purified HLA; details: unit not given
[5] = system: HLA-DR molecules (DR1, DR4w4, DR7, DRB5*0101, DRB1*1501, DRB1*1101, DRB1*0802, DRB1*1302); test: DR supertype cross-reactive binding; parameters: species or system human; details: for No. of DR Alleles Crossbound: Table XXXI; for DR147 Binding / DR147 Cross-binding: number of DR1, DR4w4, DR7 bound; for DR147 Binding: Table XXIX; for DR147 Cross-binding: Table XXVIII; for Broad Binding (5/8): number of the 8 DR alleles bound
[6] = molecular target: DRB1*1501 (DR2w2β1) (Homo sapiens, UniProt P01903+P01911); test: HLA class II peptide binding assay, purified HLA; details: for DR2wB1 binding data: Table XIX, DR supermotif peptides; for IC50: Table XXIX, read-out: DR2w2β1 nM
[7] = molecular target: DRB1*0802 (DR8w2) (Homo sapiens, UniProt P01903+P01911, A100R/A103L/A169T/F76Y/H45Y/I96F/K41T/L162R/M171V/P40S/Q125H/Q178H/Q39Y/Q99D/R218S/R42G/S66Y/V115G/W38E); test: HLA class II peptide binding assay, purified HLA; details: for DR8w2 binding data: unit not given
[8] = molecular target: DRB1*0101 (DR1) (Homo sapiens, UniProt P01903+P01911, A100R/D57E/F55L/F60I/F76Y/I96L/L162R/M171V/P40L/Q125E/R42F/V115G/Y59C); test: HLA class II peptide binding assay, purified HLA; details: unit not given
[9] = molecular target: DRB1*0401 (DR4w4) (Homo sapiens, UniProt P01903+P01911, A100K/A169T/F76Y/I96L/K127E/L162R/M171V/N62H/P40V/Q125Y/R42H/S133A/S149N/S66Y/V115G/V209L/W38E); test: HLA class II peptide binding assay, purified HLA; details: unit not given
[10] = molecular target: DRB5*0101 (DR2w2β2) (Homo sapiens, UniProt P01903+Q30154); test: HLA class II peptide binding assay, purified HLA; details: for DR2w2B2 binding data: unit not given
[11] = Table XIX, DR supermotif peptides
[12] = Table XXa, DR 3a motif peptides

CC[C@H](C)[C@H](NC(=O)CNC(=O)[C@H](CC(C)C)NC(=O)[C@H](CC(C)C)NC(=O)[C@H](CCCNC(=N)N)NC(=O)[C@@H](N)CO)C(=O)N[C@@H](CS)C(=O)N[C@@H](CC(C)C)C(=O)N[C@H](C(=O)N[C@@H](CO)C(=O)N[C@H](C(=O)N[C@H](C(=O)N[C@@H](CCC(N)=O)C(=O)N[C@@H](CC(C)C)C(=O)N[C@H](C(=O)O)C(C)C)C(C)C)[C@@H](C)O)[C@@H](C)O
DR6w19 binding data [1, 11]: 0.3400 | DR5w11 binding data [2, 11]: 0.0140 | DR7 binding data [3, 11]: 0.5600 | DR3 binding data [4, 11]: 0.0062 | No. of DR Alleles Crossbound [5]: 5 | DR147 Binding [5]: 3 | DR147 Cross-binding [5]: 3 | Broad Binding (5/8) [5]: 5 | DR2wB1 binding data ([6]; unit not given): 0.0220 | DR8w2 binding data [7, 11]: 0.0009 | DR1 binding data [8, 11]: 0.3500 | DR4w4 binding data [9, 11]: 0.1200 | DR2w2B2 binding data [10, 11]: −0.0007

CC[C@H](C)[C@H](NC(=O)[C@H](CCCNC(=N)N)NC(=O)CNC(=O)[C@H](CCCNC(=N)N)NC(=O)[C@@H](NC(=O)[C@@H](NC(=O)[C@H](CCC(N)=O)NC(=O)[C@H](CC(C)C)NC(=O)[C@H](CC(N)=O)NC(=O)[C@H](CCC(N)=O)NC(=O)[C@H](Cc1ccccc1)NC(=O)[C@@H](NC(=O)[C@H](CO)NC(=O)[C@@H](N)CC(C)C)C(C)C)C(C)C)[C@@H](C)CC)C(=O)N[C@@H](CC(C)C)C(=O)O
DR6w19 binding data [1, 11]: 0.0057 | DR5w11 binding data [2, 11]: 0.0100 | DR7 binding data [3, 11]: 0.2900 | DR3 binding data [4, 11]: 0.0010 | DR147 Binding [5]: 3 | DR147 Cross-binding [5]: 3 | Broad Binding (5/8) [5]: 6 | DR2wB1 binding data ([6]; unit not given): 0.0280 | DR8w2 binding data [7, 11]: 0.0330 | DR1 binding data [8, 11]: 0.1800 | DR4w4 binding data [9, 11]: 0.0670 | DR2w2B2 binding data [10, 11]: 0.0740

CC[C@H](C)[C@H](NC(=O)[C@H](CCSC)NC(=O)[C@H](Cc1ccc(O)cc1)NC(=O)[C@@H](NC(=O)[C@H](CC(=O)O)NC(=O)[C@@H](NC(=O)[C@@H](NC(=O)[C@H](CS)NC(=O)[C@@H](NC(=O)[C@@H]1CCCN1C(=O)[C@@H]1CCCN1C(=O)[C@@H](N)CCC(N)=O)[C@@H](C)CC)[C@@H](C)O)[C@@H](C)CC)C(C)C)C(=O)N[C@@H](CCSC)C(=O)N[C@H](C(=O)N[C@@H](CCCCN)C(=O)O)C(C)C
DR6w19 binding data [1, 11]: 0.0013 | DR5w11 binding data [2, 11]: 0.0046 | DR7 binding data [3, 11]: 0.1000 | DR3 binding data [4, 11]: 0.0976 | DR147 Binding [5]: 2 | DR147 Cross-binding [5]: 2 | Broad Binding (5/8) [5]: 3 | DR2wB1 binding data ([6]; unit not given): 0.0540 | DR8w2 binding data [7, 11]: 0.0051 | DR1 binding data [8, 11]: 0.0670 | DR4w4 binding data [9, 11]: 0.0060 | DR2w2B2 binding data [10, 11]: 0.0027

CC[C@H](C)[C@H](NC(=O)[C@H](C)NC(=O)[C@@H](NC(=O)[C@@H]1CCCN1C(=O)[C@@H](NC(=O)[C@H](CCCCN)NC(=O)[C@@H](NC(=O)[C@H](CC(N)=O)NC(=O)[C@H](CCC(=O)O)NC(=O)CN)C(C)C)[C@@H](C)CC)C(C)C)C(=O)N[C@@H](CCCCN)C(=O)N[C@H](C(=O)N[C@@H](CC(C)C)C(=O)N[C@@H](CCCNC(=N)N)C(=O)N[C@@H](CCC(=O)O)C(=O)O)C(C)C
DR6w19 binding data [1, 11]: 0.0004 | DR5w11 binding data [2, 11]: −0.0005 | DR7 binding data [3, 11]: 0.0310 | DR3 binding data [4, 11]: 0.0098 | DR147 Binding [5]: 2 | DR147 Cross-binding [5]: 2 | Broad Binding (5/8) [5]: 2 | DR2wB1 binding data ([6]; unit not given): 0.0047 | DR8w2 binding data [7, 11]: 0.0010 | DR1 binding data [8, 11]: 0.0630 | DR4w4 binding data [9, 11]: −0.0032 | DR2w2B2 binding data [10, 11]: 0.0034

CC[C@H](C)[C@H](NC(=O)[C@H](CCCNC(=N)N)NC(=O)[C@H](CCSC)NC(=O)[C@@H](N)CCC(N)=O)C(=O)N[C@@H](CC(C)C)C(=O)N[C@@H](CCCCN)C(=O)N[C@@H](CCC(=O)O)C(=O)N[C@H](C(=O)N[C@@H](CCC(=O)O)C(=O)N[C@@H](CC(C)C)C(=O)N[C@@H](CCCNC(=N)N)C(=O)N[C@@H](CCCCN)C(=O)N[C@H](C(=O)N[C@@H](CCCCN)C(=O)N[C@H](C(=O)O)C(C)C)C(C)C)[C@@H](C)O
DR6w19 binding data [1, 12]: 0.0008 | DR5w11 binding data [2, 12]: 0.0041 | DR7 binding data [3, 12]: 0.0130 | DR3 binding data [4, 12]: 0.3200 | No. of DR Alleles Crossbound [5]: 3 | DR2w2B1 binding data ([6]; Table XXa, DR 3a motif peptides, unit not given): 0.0150 | DR8w2 binding data [7, 12]: 0.0064 | DR1 binding data [8, 12]: 0.0419 | DR4w4 binding data [9, 12]: −0.0055 | DR2w2B2 binding data [10, 12]: 0.5900

CSCC[C@H](NC(=O)[C@@H](NC(=O)[C@H](Cc1ccc(O)cc1)NC(=O)[C@H](C)NC(=O)[C@H](CCC(=O)O)NC(=O)[C@@H](N)CC(=O)O)C(C)C)C(=O)N[C@@H](C)C(=O)NCC(=O)N[C@H](C(=O)NCC(=O)N[C@@H](CO)C(=O)N1CCC[C@H]1C(=O)N[C@@H](Cc1ccc(O)cc1)C(=O)N[C@H](C(=O)N[C@@H](CO)C(=O)O)C(C)C)C(C)C
DR6w19 binding data [1, 11]: 0.0020 | IC50 ([1]; Table XXIX, read-out: DR6w19 nM): 1750 nM | DR5w11 binding data [2, 11]: 0.0027 | DR7 binding data [3, 11]: 0.2000 | DR3 binding data [4, 11]: 0.0010 | No. of DR Alleles Crossbound [5]: 5 | DR147 Binding [5]: 3 | DR147 Cross-binding [5]: 3 | Broad Binding (5/8) [5]: 5 | DR2wB1 binding data ([6]; unit not given): 0.0029 | IC50 [6]: 3140 nM | DR8w2 binding data [7, 11]: 0.0570 | IC50 ([7]; Table XXIX, read-out: DR8w2 nM): 860 nM | DR1 binding data [8, 11]: 0.0500 | DR4w4 binding data [9, 11]: 0.2300 | DR2w2B2 binding data [10, 11]: 0.0240 | IC50 ([10]; Table XXIX, read-out: DR2w2β2 nM): 833 nM

CC[C@H](C)[C@H](NC(=O)[C@H](CCCCN)NC(=O)[C@H](CCCCN)NC(=O)[C@@H](N)CS)C(=O)N[C@@H](Cc1ccccc1)C(=O)NCC(=O)N[C@@H](CO)C(=O)N[C@@H](CC(C)C)C(=O)N[C@@H](C)C(=O)N[C@@H](Cc1ccccc1)C(=O)N[C@@H](CC(C)C)C(=O)N1CCC[C@H]1C(=O)N[C@@H](CCC(=O)O)C(=O)N[C@@H](CO)C(=O)N[C@@H](Cc1ccccc1)C(=O)O
DR6w19 binding data [1, 11]: 0.0034 | DR5w11 binding data [2, 11]: −0.0005 | DR7 binding data [3, 11]: 0.0270 | DR3 binding data [4, 11]: 0.0010 | DR147 Binding [5]: 2 | DR147 Cross-binding [5]: 2 | Broad Binding (5/8) [5]: 2 | DR2wB1 binding data ([6]; unit not given): 0.0070 | IC50 [6]: 1300 nM | DR8w2 binding data [7, 11]: −0.0004 | DR1 binding data [8, 11]: 0.2400 | DR4w4 binding data [9, 11]: −0.0025 | DR2w2B2 binding data [10, 11]: 0.0016

CC(C)C[C@H](NC(=O)[C@H](CO)NC(=O)[C@H](C)NC(=O)[C@H](CC(N)=O)NC(=O)[C@@H](NC(=O)[C@@H]1CCCN1C(=O)[C@H](CC(C)C)NC(=O)[C@H](Cc1ccc(O)cc1)NC(=O)[C@@H](NC(=O)[C@@H](N)CC(C)C)[C@@H](C)O)[C@@H](C)O)C(=O)N[C@@H](CO)C(=O)N[C@@H](Cc1ccccc1)C(=O)N[C@@H](CC(C)C)C(=O)N[C@@H](CCC(N)=O)C(=O)N[C@@H](CC(=O)O)C(=O)O
DR6w19 binding data [1, 11]: 0.0280 | DR5w11 binding data [2, 11]: 0.0041 | DR7 binding data [3, 11]: 0.3200 | DR3 binding data [4, 11]: 0.0150 | DR147 Binding [5]: 3 | DR147 Cross-binding [5]: 3 | Broad Binding (5/8) [5]: 6 | DR2wB1 binding data ([6]; unit not given): 0.0100 | DR8w2 binding data [7, 11]: 0.0054 | DR1 binding data [8, 11]: 0.4900 | DR4w4 binding data [9, 11]: 0.3300 | DR2w2B2 binding data [10, 11]: 0.0560
